From paper PMC6917776, “Discovery of a chemical probe for PRDM9” (Nature Communications, 2019)

Tests used:
CAL851 = test: CelltiterGlo viability cell assay; type: cell-based
Protocol: (§1) Supplementary Figure 13. […] Viability of
(§2) (a) Multiple Myeloma lines and (b) Breast Cancer cell lines following 3 or 6 days treatment with […]
(§3) manufacturer’s instructions as described in the Supplementary methods. Data are normalized to DMSO control. N=3 biological replicates, +/- SEM. Source data are provided as a Source Data […]
(§4) CelltiterGlo viability cell assay
(§5) Cells were seeded in 96 well plates at per-well densities of 10000 (MDA-MB436, ATCC-HTB130), 15000 (8226, kind gift from Rodger Tiedemann, Princess Margaret Cancer Centre), […]
(§6) kind gift from Rodger Tiedemann, Princess Margaret Cancer Centre) and 50000 (CAL851, kind gift from Mathieu Lupien, Princess Margaret Cancer Centre) and were treated at increasing concentrations of compounds ranging from 0.01 μM to 30 μM and assessed for proliferation using CelltiterGlo (Promega) following manufacturer’s instructions, as readout on days 3 and 6 as indicated. All cell lines were mycoplasma negative, as determined by MycoAlert™ Mycoplasma Detection Kit(Lonza). […]

RPMI-8226 = test: CelltiterGlo viability cell assay; type: cell-based; settings: 8226, 3 day
Protocol: as §1, §2, §3, §4, §5, §6

Q: `COc1cc(OC)cc(-c2noc(N3CCN(C)C4(CCN(c5ccccc5)CC4)C3)n2)c1` [MRK-740N] was tested. Which “viability Average” value (CAL851; CAL851, 3 day, 0.01 uM) did it give?
A: Its value is 102.43.

Q: And the “viability Replicate 1” value (CAL851; CAL851, 3 day, 0.01 uM)?
A: Its value is 104.57.

Q: And the “viability Replicate 2” value (CAL851; CAL851, 3 day, 0.01 uM)?
A: The value was 100.53.

Q: What about the “viability Replicate 3” value (CAL851; CAL851, 3 day, 0.01 uM) of the same compound?
A: The value was 102.20.

Q: And the “viability Average” value (CAL851; CAL851, 3 day, 0.03 uM)?
A: Its value is 101.16.

Q: And the “viability Replicate 1” value (CAL851; CAL851, 3 day, 0.03 uM)?
A: Its value is 95.74.

Q: What about the “viability Replicate 2” value (CAL851; CAL851, 3 day, 0.03 uM) of the same compound?
A: Its value is 100.94.

Q: And the “viability Replicate 3” value (CAL851; CAL851, 3 day, 0.03 uM)?
A: The value was 106.79.

Q: What about the “viability Average” value (CAL851; CAL851, 3 day, 0.1 uM) of the same compound?
A: Its value is 104.74.

Q: And the “viability Replicate 1” value (CAL851; CAL851, 3 day, 0.1 uM)?
A: The value was 106.32.

Q: What about the “viability Replicate 2” value (CAL851; CAL851, 3 day, 0.1 uM) of the same compound?
A: Its value is 96.40.

Q: What about the “viability Replicate 3” value (CAL851; CAL851, 3 day, 0.1 uM) of the same compound?
A: Its value is 111.49.

Q: And the “viability Average” value (CAL851; CAL851, 3 day, 0.3 uM)?
A: The value was 106.71.

Q: And the “viability Replicate 1” value (CAL851; CAL851, 3 day, 0.3 uM)?
A: The value was 111.33.

Q: And the “viability Replicate 2” value (CAL851; CAL851, 3 day, 0.3 uM)?
A: Its value is 101.82.

Q: What about the “viability Replicate 3” value (CAL851; CAL851, 3 day, 0.3 uM) of the same compound?
A: The value was 106.99.

Q: And the “viability Average” value (CAL851; CAL851, 3 day, 1 uM)?
A: Its value is 96.30.

Q: And the “viability Replicate 1” value (CAL851; CAL851, 3 day, 1 uM)?
A: The value was 98.38.

Q: What about the “viability Replicate 2” value (CAL851; CAL851, 3 day, 1 uM) of the same compound?
A: Its value is 96.24.

Q: And the “viability Replicate 3” value (CAL851; CAL851, 3 day, 1 uM)?
A: The value was 94.27.

Q: What about the “viability Average” value (CAL851; CAL851, 3 day, 3 uM) of the same compound?
A: The value was 97.71.

Q: And the “viability Replicate 1” value (CAL851; CAL851, 3 day, 3 uM)?
A: Its value is 91.85.

Q: And the “viability Replicate 2” value (CAL851; CAL851, 3 day, 3 uM)?
A: Its value is 95.91.

Q: And the “viability Replicate 3” value (CAL851; CAL851, 3 day, 3 uM)?
A: The value was 105.37.

Q: What about the “viability Average” value (CAL851; CAL851, 3 day, 9.5 uM) of the same compound?
A: The value was 95.86.

Q: And the “viability Replicate 1” value (CAL851; CAL851, 3 day, 9.5 uM)?
A: The value was 89.90.

Q: What about the “viability Replicate 2” value (CAL851; CAL851, 3 day, 9.5 uM) of the same compound?
A: The value was 94.75.

Q: And the “viability Replicate 3” value (CAL851; CAL851, 3 day, 9.5 uM)?
A: Its value is 102.94.

Q: And the “viability Average” value (CAL851; CAL851, 3 day, 30 uM)?
A: Its value is 88.50.

Q: And the “viability Replicate 1” value (CAL851; CAL851, 3 day, 30 uM)?
A: Its value is 89.70.

Q: What about the “viability Replicate 2” value (CAL851; CAL851, 3 day, 30 uM) of the same compound?
A: Its value is 92.97.

Q: And the “viability Replicate 3” value (CAL851; CAL851, 3 day, 30 uM)?
A: Its value is 82.83.

Q: What about the “viability Average” value (CAL851; CAL851, 6 day, 0.01 uM) of the same compound?
A: Its value is 99.23.

Q: What about the “viability Replicate 1” value (CAL851; CAL851, 6 day, 0.01 uM) of the same compound?
A: The value was 100.50.

Q: What about the “viability Replicate 2” value (CAL851; CAL851, 6 day, 0.01 uM) of the same compound?
A: The value was 95.18.

Q: What about the “viability Replicate 3” value (CAL851; CAL851, 6 day, 0.01 uM) of the same compound?
A: Its value is 102.02.

Q: And the “viability Average” value (CAL851; CAL851, 6 day, 0.03 uM)?
A: The value was 103.06.

Q: What about the “viability Replicate 1” value (CAL851; CAL851, 6 day, 0.03 uM) of the same compound?
A: The value was 101.15.

Q: And the “viability Replicate 2” value (CAL851; CAL851, 6 day, 0.03 uM)?
A: Its value is 96.95.

Q: And the “viability Replicate 3” value (CAL851; CAL851, 6 day, 0.03 uM)?
A: Its value is 111.07.

Q: What about the “viability Average” value (CAL851; CAL851, 6 day, 0.1 uM) of the same compound?
A: Its value is 96.92.

Q: What about the “viability Replicate 1” value (CAL851; CAL851, 6 day, 0.1 uM) of the same compound?
A: The value was 94.85.

Q: And the “viability Replicate 2” value (CAL851; CAL851, 6 day, 0.1 uM)?
A: Its value is 96.64.

Q: What about the “viability Replicate 3” value (CAL851; CAL851, 6 day, 0.1 uM) of the same compound?
A: The value was 99.28.

Q: What about the “viability Average” value (CAL851; CAL851, 6 day, 0.3 uM) of the same compound?
A: The value was 101.38.

Q: What about the “viability Replicate 1” value (CAL851; CAL851, 6 day, 0.3 uM) of the same compound?
A: Its value is 95.47.

Q: And the “viability Replicate 2” value (CAL851; CAL851, 6 day, 0.3 uM)?
A: The value was 94.74.

Q: And the “viability Replicate 3” value (CAL851; CAL851, 6 day, 0.3 uM)?
A: The value was 113.94.

Q: What about the “viability Average” value (CAL851; CAL851, 6 day, 1 uM) of the same compound?
A: The value was 102.45.

Q: And the “viability Replicate 1” value (CAL851; CAL851, 6 day, 1 uM)?
A: Its value is 100.66.

Q: What about the “viability Replicate 2” value (CAL851; CAL851, 6 day, 1 uM) of the same compound?
A: Its value is 100.26.

Q: What about the “viability Replicate 3” value (CAL851; CAL851, 6 day, 1 uM) of the same compound?
A: The value was 106.42.

Q: And the “viability Average” value (CAL851; CAL851, 6 day, 3 uM)?
A: Its value is 100.92.

Q: And the “viability Replicate 1” value (CAL851; CAL851, 6 day, 3 uM)?
A: Its value is 96.08.

Q: What about the “viability Replicate 2” value (CAL851; CAL851, 6 day, 3 uM) of the same compound?
A: The value was 95.38.

Q: What about the “viability Replicate 3” value (CAL851; CAL851, 6 day, 3 uM) of the same compound?
A: The value was 111.29.

Q: And the “viability Average” value (CAL851; CAL851, 6 day, 9.5 uM)?
A: The value was 96.88.

Q: And the “viability Replicate 1” value (CAL851; CAL851, 6 day, 9.5 uM)?
A: The value was 95.12.

Q: And the “viability Replicate 2” value (CAL851; CAL851, 6 day, 9.5 uM)?
A: Its value is 99.49.

Q: What about the “viability Replicate 3” value (CAL851; CAL851, 6 day, 9.5 uM) of the same compound?
A: Its value is 96.04.

Q: What about the “viability Average” value (CAL851; CAL851, 6 day, 30 uM) of the same compound?
A: The value was 87.30.

Q: What about the “viability Replicate 1” value (CAL851; CAL851, 6 day, 30 uM) of the same compound?
A: The value was 87.23.

Q: What about the “viability Replicate 2” value (CAL851; CAL851, 6 day, 30 uM) of the same compound?
A: Its value is 87.15.

Q: What about the “viability Replicate 3” value (CAL851; CAL851, 6 day, 30 uM) of the same compound?
A: Its value is 87.51.

Q: What about the “viability Average” value (RPMI-8226; 0.01 uM) of the same compound?
A: Its value is 101.19.

Q: And the “viability Replicate 1” value (RPMI-8226; 0.01 uM)?
A: Its value is 100.76.

Q: What about the “viability Replicate 2” value (RPMI-8226; 0.01 uM) of the same compound?
A: The value was 100.18.

Q: And the “viability Replicate 3” value (RPMI-8226; 0.01 uM)?
A: Its value is 102.63.

Q: What about the “viability Average” value (RPMI-8226; 0.03 uM) of the same compound?
A: The value was 99.22.

Q: What about the “viability Replicate 1” value (RPMI-8226; 0.03 uM) of the same compound?
A: Its value is 99.66.

Q: What about the “viability Replicate 2” value (RPMI-8226; 0.03 uM) of the same compound?
A: The value was 95.69.

Q: And the “viability Replicate 3” value (RPMI-8226; 0.03 uM)?
A: Its value is 102.30.

Q: And the “viability Average” value (RPMI-8226; 0.1 uM)?
A: Its value is 101.66.

Q: And the “viability Replicate 1” value (RPMI-8226; 0.1 uM)?
A: The value was 102.47.

Q: And the “viability Replicate 2” value (RPMI-8226; 0.1 uM)?
A: The value was 99.05.

Q: What about the “viability Replicate 3” value (RPMI-8226; 0.1 uM) of the same compound?
A: Its value is 103.47.

Q: What about the “viability Average” value (RPMI-8226; 0.3 uM) of the same compound?
A: The value was 100.14.

Q: What about the “viability Replicate 1” value (RPMI-8226; 0.3 uM) of the same compound?
A: The value was 98.42.

Q: And the “viability Replicate 2” value (RPMI-8226; 0.3 uM)?
A: The value was 99.23.

Q: What about the “viability Replicate 3” value (RPMI-8226; 0.3 uM) of the same compound?
A: Its value is 102.78.

Q: What about the “viability Average” value (RPMI-8226; 1 uM) of the same compound?
A: The value was 99.15.

Q: What about the “viability Replicate 1” value (RPMI-8226; 1 uM) of the same compound?
A: Its value is 95.47.

Q: What about the “viability Replicate 2” value (RPMI-8226; 1 uM) of the same compound?
A: Its value is 99.58.

Q: What about the “viability Replicate 3” value (RPMI-8226; 1 uM) of the same compound?
A: Its value is 102.40.

Q: And the “viability Average” value (RPMI-8226; 3 uM)?
A: The value was 100.92.

Q: And the “viability Replicate 1” value (RPMI-8226; 3 uM)?
A: Its value is 100.27.

Q: What about the “viability Replicate 2” value (RPMI-8226; 3 uM) of the same compound?
A: Its value is 100.06.

Q: And the “viability Replicate 3” value (RPMI-8226; 3 uM)?
A: Its value is 102.42.

Q: And the “viability Average” value (RPMI-8226; 9.5 uM)?
A: Its value is 90.08.

Q: What about the “viability Replicate 1” value (RPMI-8226; 9.5 uM) of the same compound?
A: Its value is 80.69.

Q: What about the “viability Replicate 2” value (RPMI-8226; 9.5 uM) of the same compound?
A: Its value is 88.67.

Q: What about the “viability Replicate 3” value (RPMI-8226; 9.5 uM) of the same compound?
A: The value was 100.87.

Q: What about the “viability Average” value (RPMI-8226; 30 uM) of the same compound?
A: Its value is 40.55.

Q: And the “viability Replicate 1” value (RPMI-8226; 30 uM)?
A: The value was 58.77.

Q: What about the “viability Replicate 2” value (RPMI-8226; 30 uM) of the same compound?
A: The value was 22.31.

Q: And the “viability Replicate 3” value (RPMI-8226; 30 uM)?
A: Its value is 40.58.
